Measurements published in patent US20250152586A1, “PHARMACEUTICAL COMPOSITION FOR RELIEVING OR TREATING PAIN BY REGULATING CEREBELLAR GLIAL CELLS AND METHOD FOR RELIEVING OR TREATING PAIN” (Seoul National University R&DB Foundation, priority 2021, published 2025).
Structures can show the parent of a compound that is named as a salt. One block for each molecule: values may come before it.

Columns and labels:
[1] = Basic motor function, ledge test and gait test; type: in vivo, mice; conditions: vs control
Description: To confirm whether basic behavioral patterns were affected when the activity of cerebellar glial cells was regulated, basic movements were measured by placing the mice in a chamber measuring 40 cm in length and width (FIG. 1D).
A ledge test was first performed to measure motor coordination. […] A score closer to 3 was determined to be normal, and a score closer to 0 was determined to be abnormal motor coordination. (FIG. 1E, ledge test).
A gait test was secondly performed to measure motor coordination. An experimenter measured the mouse's walking pattern without being observed. […] A score closer to 3 was determined to be normal, and a score closer to 0 was determined to be abnormal motor coordination (FIG. 1E, gait test).

[2] = molecular target: T1, hM4D (Gi) expressed in locus coeruleus cells (Homo sapiens, UniProt P08173, A203G/Y113C); test: Capsaicin-induced pain licking time with chemogenetic inhibition of the axon terminals of locus coeruleus cells in the cerebellum (hM4D (Gi) activated by C21); type: in vivo, mice; conditions: 0.5 μl of 1 mM C21 into cerebellar cortex via cannula (vermis lobule IV/V), hM4D (Gi) in LC, about 10 minutes after, vs control; FIG. 3B
T1 construct: expressed in transfected cells; host or cells: mouse locus coeruleus cells, transduced in vivo by virus; agonist C21 applied at their axon terminals in the cerebellar cortex
T1 sequence (P08173 1-479 Y113C/A203G): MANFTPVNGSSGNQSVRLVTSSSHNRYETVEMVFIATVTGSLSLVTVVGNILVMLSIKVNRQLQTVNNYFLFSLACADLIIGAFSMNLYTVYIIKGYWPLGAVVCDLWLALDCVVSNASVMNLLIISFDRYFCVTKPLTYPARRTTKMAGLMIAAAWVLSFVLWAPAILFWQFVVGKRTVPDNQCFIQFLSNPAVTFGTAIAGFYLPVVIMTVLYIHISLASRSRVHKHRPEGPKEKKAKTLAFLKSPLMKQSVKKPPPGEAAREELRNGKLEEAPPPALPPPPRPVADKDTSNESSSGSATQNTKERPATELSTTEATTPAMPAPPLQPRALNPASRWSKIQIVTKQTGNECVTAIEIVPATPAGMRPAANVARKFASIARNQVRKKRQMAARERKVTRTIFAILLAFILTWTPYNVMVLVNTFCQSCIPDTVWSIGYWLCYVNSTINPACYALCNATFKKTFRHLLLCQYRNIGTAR
Description: (§1) 1-2. Drug Injection For chemogenetic inhibition of cerebellar glial cells, CNO was injected intraperitoneally at a dose of 5 to 10 mg/kg. For chemogenetic inhibition of locus coeruleus cells, 0.5 μl of 1 mM C21 was directly injected into the cerebellar cortex through a cannula installed in cerebellar vermis lobule IV/V. Prazosin (100 μM, 0.5 μl) and muscimol (100 μM, 0.5 μl), which are alpha-1 adrenergic receptor inhibitors or GABAA agonists, were injected through cannulas targeting the cerebellar cortex and cerebellar nuclei, respectively.
(§2) To confirm the pain pattern caused by capsaicin, the degree of pain was recorded for a total of 30 minutes, 10 minutes before the injection of capsaicin and 20 minutes after the injection of capsaicin (FIG. 1B).
Using non-genetically modified wild-type mice, a specific chemogenetic inhibitory virus which targets locus coeruleus cells was injected. […] Further, in this case, to confirm that the inhibition of the axon terminals of the locus coeruleus only affected the pain pattern, basic motor function was measured using the ledge test and gait test described above in Example 1-3. […]

[3] = molecular target: T2, hM4D (Gi) expressed in cerebellar glial cells (vermis lobule IV/V) (Homo sapiens, UniProt P08173, A203G/Y113C); test: Capsaicin-induced pain licking time with chemogenetic inhibition of cerebellar glial cells (hM4D (Gi) activated by CNO); type: in vivo, mice; conditions: CNO intraperitoneal 5 to 10 mg/kg, about 1 hour after, vs control, FIG. 2B
T2 construct: expressed in transfected cells; host or cells: mouse cerebellar glial cells (vermis lobule IV/V), transduced in vivo by virus
T2 sequence (P08173 1-479 Y113C/A203G): T1 sequence (P08173 1-479 Y113C/A203G)
Description: Using non-genetically modified wild-type mice, a specific chemogenetic inhibitory virus which targets cerebellar glial cells was injected. […] Therefore, CNO, an agonist capable of activating the corresponding virus, was injected intraperitoneally at a dose of 5 to 10 mg/kg. Behavioral experiments were performed about 1 hour after glial cells were inhibited (FIG. 2A).

GABAA receptor = test: Capsaicin-induced pain licking time after local injection of muscimol into the deep cerebellar nuclei; type: in vivo, mice; conditions: muscimol 100 μM, 0.5 μl, local into deep cerebellar nuclei (DCN) via cannula, 10 minutes after, vs control; FIG. 6B
Description: as §1, §2
Information processed in the cerebellar cortex converges to the cerebellar nuclei. To investigate the pain pattern induced by capsaicin when the cerebellar nuclei, the target of cerebellar output, were inhibited, the deep cerebellar nuclei (DCN) region was locally administered muscimol (100 μM, 0.5 μl), an inhibitory neurotransmitter GABAA receptor agonist, through a cannula. The licking time was measured 10 minutes after the injection when the effect of muscimol appeared (FIG. 6A).

[4] = system: alpha-1 adrenergic receptors in cerebellar glial cells; test: Capsaicin-induced pain licking time after local injection of prazosin into the cerebellum; type: in vivo, mice; conditions: prazosin 100 μM, 0.5 μl, local into cerebellum (vermis lobule IV/V) via cannula, about 10 minutes after, vs control; FIG. 4B
Description: as §1, §2
Alpha-1 adrenergic receptors in cerebellar glial cells are activated by norepinephrine. To inhibit this, prazosin (100 μM, 0.5 μl), an alpha-1 adrenergic receptor antagonist, was locally injected only into the cerebellum (vermis lobule IV/V) via a cannula. Thereafter, behavioral experiments were performed about 10 minutes after the alpha-1 adrenergic receptors were inhibited (FIG. 4A).

[5] = system: cerebellar glial cell-specific alpha-1 adrenergic receptors; test: Capsaicin-induced pain licking time after knockdown with cerebellar glial cell-specific shRNA; type: in vivo; conditions: Cre-dependent shRNA virus in Glast-Cre/ERT mice after tamoxifen, vs control; FIG. 5B
Description: Using non-genetically modified wild-type mice, a specific chemogenetic inhibitory virus which targets cerebellar glial cells and locus coeruleus cells was injected. To specifically remove alpha1-adrenergic receptors from cerebellar glial cells, using Glast-Cre (Tg(Slcla3-Cre/ERT) 1Nat/J), a genetically modified mouse in which Cre is expressed by tamoxifen specifically in only cerebellar glial cells, Cre was expressed by injecting tamoxifen, and then a virus that removes the alpha1-adrenergic receptor in a Cre-dependent manner was injected.
as §2
As another approach to prevent the activity of cerebellar glial cells, alpha-1 adrenergic receptors were inhibited using cerebellar glial cell-specific shRNA. To specifically remove alpha1-adrenergic receptors from cerebellar glial cells, using Glast-Cre (Tg(Slcla3-Cre/ERT) 1Nat/J), a genetically modified mouse in which Cre is expressed by tamoxifen specifically in only cerebellar glial cells, Cre was expressed by injecting tamoxifen, and then a virus that removes the alpha1-adrenergic receptor in a Cre-dependent manner was injected. Glast-cre (Tg(Slcla3-cre/ERT) 1 Nat/J) mice were purchased from Jackson Labs, USA. […]

Molecule: Cl.Cl.c1ccc2c(c1)N=C(N1CCNCC1)c1ccccc1N2 [C21, DREADD agonist 21(Compound 21)]
basic motor performance (ledge test and gait test) ([1]; 0.5 μl of 1 mM C21 into cerebellar cortex, hM4D (Gi) in LC, FIG. 3C): no significance difference | licking time (pain induced by capsaicin) [2]: significantly reduced

licking time (pain induced by capsaicin) [3]: significantly reduced
Molecule: C[N+]1([O-])CCN(C2=Nc3cc(Cl)ccc3Nc3ccccc32)CC1.Cl.Cl [CNO, Clozapine N-oxide (CNO) dihydrochloride]

Molecule: NCc1cc(=O)[nH]o1 [muscimol, Muscimol]
basic motor performance (ledge test and gait test) ([1]; muscimol 100 μM, 0.5 μl, local into DCN, FIG. 6C): no significance difference | licking time (pain induced by capsaicin) (GABAA receptor): significantly reduced

basic motor performance (ledge test and gait test) ([1]; prazosin 100 μM, 0.5 μl, local into cerebellum, FIG. 4C): no significance difference
Molecule: COc1cc2nc(N3CCN(C(=O)c4ccco4)CC3)nc(N)c2cc1OC [prazosin, Prazosin hydrochloride]
licking time (pain induced by capsaicin) [4]: significantly reduced

Molecule: shRNA: Cre-dependent cerebellar glial cell-specific shRNA (534-558) against alpha-1 adrenergic receptor, GAGCCACACTTAGCTAACCATTTCA (guide GAGCCACACUUAGCUAACCAUUUCA)
licking time (pain induced by capsaicin) [5]: significantly reduced
